Measurements as given in publication PMC7760004, “Hydrocarbon-Stapled Peptide Based-Nanoparticles for siRNA Delivery” (Nanomaterials, 2020).
Peptide text beside a SMILES is read from it. * marks the point of attachment. FITC = O=C1OC2(c3ccc(O)cc3Oc3cc(O)ccc32)c2ccc(NC(=S)*)cc21; Ahx = NCCCCCC(=O)O

How the values were obtained:
MDA-MB-231 cells = assay: Cellular uptake of FITC-stapled peptides (plate-reader fluorescence); conditions: MDA-MB-231, 5 µM FITC-peptide, 4 h
Protocol: MDA-MB-231 cells were seeded in black 96-well plate in 200 μL of their corresponding medium. After 24 h of cell growth, cells were treated with 5 µM concentration of FITC-stapled peptides for 4 h. Total fluorescence (TF) was measured using CLARIOstar® High Performance Monochromator Multimode Microplate Reader (BMG Labtech, Ortenberg, Germany) at excitation/emission of 483-14/530-30 nm. Cells were washed three times with PBS and remaining fluorescence (RF) was measured using the same conditions. The percentage of uptake values were presented as relative mean fluorescence and normalized with respect to Penetratin used as a standard control and set at 100%.

[1] = Circular dichroism, determination of helical content; assay type: physicochemical; conditions: water/TFE (95/5)
Protocol: Circular dichroism experiments were carried out using a Jasco J815 spectropolarimeter. Spectra (Jasco, Easton, MD, USA) were typically recorded with 100 μM of peptides dissolved in a water/TFE mixture (95/5), pH 7, using a 1 mm pathlength CD cuvette at 20 °C, over a wavelength range of 190–260 nm. The peptide concentrations were normalized measuring the OD at 490 nm considering a molar coefficient extinction (ε490) for the FITC of 76,900 cm^−1 M^−1. Continuous scanning mode was used, with a response of 1.0 s with 0.1 nm steps and a bandwidth of 2 nm. The signal to noise ratio was improved by acquiring each spectrum over an average of two scans. Baseline was corrected by subtracting the background from the sample spectrum. Alpha helical content was determined using the following equation: % Helix = ([θ])obs × 100)/(−39,500 × (1 − 2.57/n), where ([θ])obs is the mean residue ellipticity at 222 nm and n the number of peptide bonds.

ability to enter cells (uptake, in words) (MDA-MB-231 cells): almost not able to enter cells
α Helix (%) ([1]; CD, 100 μM peptide, pH 7, 20 °C, from mean residue ellipticity at 222 nm): 5%
CD profile (folding) ([1]; far-UV CD, 20 °C): remained partially unfolded
Compound: CC[C@H](C)[C@H](NC(=O)[C@H](C)NC(=O)[C@H](CCCNC(=N)N)NC(=O)[C@H](CCCNC(=N)N)NC(=O)CCCCCNC(=S)Nc1ccc2c(c1)C(=O)OC21c2ccc(O)cc2Oc2cc(O)ccc21)C(=O)N[C@H](C(=O)N[C@H](C(=O)N[C@@H](C)C(=O)N[C@@H](CCCNC(=N)N)C(=O)N[C@@H](CCCNC(=N)N)C(=O)N[C@@H](CS)C(N)=O)[C@@H](C)CC)[C@@H](C)CC [JMV6579] ({FITC-Ahx}-RRAIIIARRC-NH2)
